In PubChem BioAssay (NCI):
Several values for one entry are separate records, joined by “and”; a condition that tells them apart may be missing. Identical values can stand only once.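 These data come from cells grown in 96-well plates and exposed to compound for 48 hours at five concentrations. Abbreviation: GI50, concentration required for 50% inhibition of growth. TGI is the concentration that stops growth completely.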 Where a SMILES comes first, the peptide text is derived from it. [ ]: non-standard residue; d: D form. ξ: configuration not given here. Pentanoyl(2-O,4-OH,5-Cl) = O=C(O)C(O)CC(O)CCl; Ile(3ξ) = CCC(C)[C@H](N)C(=O)O; NMeV = CN[C@H](C(=O)O)C(C)C; NMeA = CN[C@@H](C)C(=O)O; βAla = NCCC(=O)O

Experiments:
Assay in all cases: inhibition of tumour cell growth, NCI panel, 48 h
UACC-257 melanoma = test system: UACC-257 melanoma
HS 578T breast = test system: HS 578T breast
NCI/ADR-RES ovarian = test system: NCI/ADR-RES ovarian
MALME-3M melanoma = test system: MALME-3M melanoma
CCRF-CEM leukemia = test system: CCRF-CEM leukemia
SN12C renal = test system: SN12C renal
DU-145 prostate = test system: DU-145 prostate
HOP-62 NSCLC = test system: HOP-62 NSCLC
RPMI-8226 leukemia = test system: RPMI-8226 leukemia
SNB-19 CNS = test system: SNB-19 CNS

SMILES | TGI (UACC-257 melanoma) [µM] | TGI (HS 578T breast) [µM] | TGI (NCI/ADR-RES ovarian) [µM] | TGI (MALME-3M melanoma) [µM] | TGI (CCRF-CEM leukemia) [µM] | TGI (SN12C renal) [µM] | TGI (DU-145 prostate) [µM] | TGI (HOP-62 NSCLC) | TGI (RPMI-8226 leukemia) [µM] | TGI (SNB-19 CNS) [µM] | GI50 (UACC-257 melanoma) [µM] | GI50 (HS 578T breast) [µM] | GI50 (NCI/ADR-RES ovarian) [µM] | GI50 (MALME-3M melanoma) [µM] | GI50 (CCRF-CEM leukemia) [µM] | GI50 (SN12C renal) [µM] | GI50 (DU-145 prostate) [µM] | GI50 (HOP-62 NSCLC) [µM] | GI50 (RPMI-8226 leukemia) [µM] | GI50 (SNB-19 CNS) [µM]
CC(C)(Sc1cc(C(C)(C)C)c(O)c(C(C)(C)C)c1)Sc1cc(C(C)(C)C)c(O)c(C(C)(C)C)c1 | > 100 | > 100 | > 100 | > 100 | > 100 | > 100 | > 100 | > 100 µM | > 100 | > 100 |  |  |  |  |  |  |  |  |  | 
O=C(c1ccccc1)c1nc2ccc(Cl)cc2cc1C(Br)Br | 1.54 | 0.59 | 0.505 | 5.43 | 7.11 | 0.836 | 1.97 | 1.94 µM | 1.18 | 1.42 |  |  |  |  |  |  |  |  |  | 
CCC(C)[C@@H]1NC(=O)[C@@H]2CCCN2C(=O)C(CC(O)CCl)OC(=O)CCNC(=O)[C@H](C)N(C)C(=O)[C@H](C(C)C)N(C)C1=O (stereo partly specified) (cyclo([Ile(3ξ)][NMeV][NMeA][βAla][Pentanoyl(2-O,4-OH,5-Cl)]P)) | > 86 | > 100 | > 100 | > 100 | > 100 | > 100 | > 100 | > 100 µM | > 100 | > 100 |  |  |  |  |  |  |  |  |  | 
C[C@]12CC[C@H]3[C@@H](CCC4=CC(=O)CC[C@@]43C)[C@]1(O)CC[C@]2(O)C(=O)CO | > 100 | > 100 | > 100 | > 100 | > 100 | > 100 | > 100 | > 100 µM | > 100 | > 100 |  |  |  |  |  |  |  |  |  | 
COc1cc(-c2csc(NC(=O)Nc3ccc(Cl)cc3)n2)cc(OC)c1OC | 6.03 | 20.3 | 8.65 | 6.32 | > 49.9 | 13.7 | 17.3 | 7.76 µM | 5.78 | 30.2 | 2.48 | 3.58 | 2.7 | 2.11 | 3.44 | 3.18 | 3.4 | 2.65 | 2.14 | 3.78
COc1ccc(-c2nn3ncccc3c2-c2ccnc(Nc3ccc(F)c(F)c3)n2)cc1 | > 25 | > 25 | > 25 | > 25 | > 25 | > 25 | > 25 | > 25 µM | > 25 | > 25 | 12 | 9.2 | 8.27 | 11.3 | 11.2 | 10.4 | 15.8 | 14.1 | 14.7 | 14.3
OC(c1ccccc1)c1c(-c2ccccc2)[nH]c(-c2ccccc2)c1C(O)c1ccccc1 (stereo unspecified) | 8.61 | 18.9 | 8.02 | 7.17 | 6.08 | 5.68 | 20 | 17.5 µM | 5.02 | 23.4 |  |  |  |  |  |  |  |  |  | 
Clc1cccc(-c2cc(-c3ccc4c(c3)OCCO4)[nH]n2)c1 | 55.3 | 63.3 | 33.8 | 47.5 | 182 | 40.1 | 38.9 | 41.6 µM | 250 | 59.3 | 25.4 | 6.67 | 1.11 | 5.22 | 6.99 | 5.38 | 8.74 | 2.39 | 6.38 | 21.6
CC(C)OC(=O)Nc1c([N+](=O)[O-])cc(C(F)(F)F)cc1[N+](=O)[O-] | > 100 | > 100 | > 100 | > 100 | > 100 | > 100 | > 100 | > 100 µM | > 100 | > 100 |  |  |  |  |  |  |  |  |  | 
COc1ccc2c(c1[N+](=O)[O-])CC[C@@H]1[C@@H]2CC[C@]2(C)C(=O)CC[C@@H]12 | > 1000 |  | > 1000 |  |  | > 1000 | > 1000 | > 6.71 µM and 639 µM | > 1000 |  | > 931 | 119 | 515 | > 748 | > 1000 | 983 | > 939 | 322 | > 1000 | 457
Clc1ccc2c(NCCCCNc3nc(N4CCOCC4)nc4ccccc34)ccnc2c1 | 29.9 | 7.66 | 20.6 | 3.89 | 9.38 | 4.31 | 16.5 | 5.67 µM | 7.21 | 12.6 | 15.2 | 2.25 | 4.88 | 2.05 | 3.42 | 2.03 | 4.62 | 2.17 | 2.8 | 3.37
